Where a SMILES comes first, the peptide text is derived from it. The star is where a group is joined. Cbz = O=C(OCc1ccccc1)*
What was measured:
[1] = target: RPN13 (Homo sapiens, UniProt Q16186); test: Rpn13 immunoblot in MM.1S cells; assay type: cell-based; parameters: endogenous in cells; host or cells: MM.1S; MM.1S-CRBN KO; RPMI-8226; ANBL6.BR
Procedure: Protein lysates were loaded on SDS-PAGE and transferred to PVDF membrane, and then immunoblotted with anti-alpha tubulin and Rpn13 antibodies.
In FIG. 17, MM.1S cells were treated with RA190 or JQRA at 200 nM and 400 nM, respectively, for 48 hours; and treated with RA190 or JQRA at 200 nM and 800 nM, respectively, for 48 hours. Protein lysates were loaded on SDS-PAGE and transferred to PVDF membrane, and then immunoblotted with anti-alpha tubulin and Rpn13 antibodies.
MM.1S cells, which were treated with DMSO control, bortezomib, or WL40 at indicated concentration for 3 hours; protein lysates were analyzed for different proteasome activities (CT-L, chymotrypsin-like; T-L, trypsin-like; C-L, caspase-like). FIG. 20B is a bar graph showing percent proteasome activity after normalization with DMSO control (mean±SD; n=3). Recombinant 20S proteasome was incubated with DMSO, bortezomib, or WL40 for 30 minutes, followed by assessment of the above-noted proteasome activities. FIG. 20C MM.1S cells were pretreated with exemplary proteasome inhibitor MG132 (10 μM) for 1 hour, followed by addition of WL40 (400 nM) for 8 hours. […] Total protein lysates were subjected to immunoblots for Rpn13 and α-tubulin. […] FIG. 20E ANBL6.BR cells were treated with WL40 (400 nM) or RA190 (500 nM) for 16 hours; protein lysates were subjected to immunoblot analysis using anti-Rpn13 or anti-β-actin Abs.
Cellular protein extracts were prepared using RIPA lysis buffer (50 mM Tris-HCl, 150 mM NaCl, 1% NP-40, 0.5% sodium deoxycholate, and 0.1% SDS). Protein lysates were subjected to immunoblotting using antibodies against poly ADP ribose polymerase (PARP, BD Bioscience Pharmingen, San Diego, Calif.), caspase 3, caspase 8, p53 (Santa Cruz Biotechnology), caspase 9, p-eIF2a (Abeam, Cambridge, Mass.), caspase 7, cyclin B1, CDC25C, CDCl2, p21, Rpn13, PERK, BIP, Calnexin, GFP, LC3A/B, α-tubulin (Cell Signaling, Beverly, Mass.), polyubiquitin (Enzo Life Sciences, Inc., Farmingdale, N.Y.), or β-actin (Sigma-Aldrich, St. Louis, Mo.).
Next, it was examined whether WL40 decreases cellular Rpn13 levels in MM cells. MM.1S cells were treated with various concentrations of WL40 (20 0 nM, 400 nM, or 800 nM) for 4 hours, 8 hours, and 16 hours; protein lysates were then analyzed for Rpn13 levels using immunoblot analysis. […] Decrease in Rpn13 levels was detectable as early as 8 hours after WL40 treatment and maximally (95%) reduced at 16 hours. Rpn13 protein level reduction was not observed with RA190 treatment (FIG. 19E, lower panel). There was no change in protein levels of tubulin, used as a loading control (FIG. 19E). To further corroborate the findings, MM.1S cells were treated with WL40, and then analyzed intracellular alterations in Rpn13 using flow cytometry.

[2] = system: Ub-tagged GFP that is constitutively targeted for proteasomal degradation; test: Ub-GFP (GFPu-1) reporter cell line immunoblot; assay type: cell-based; conditions: WL40, WL44 0.5-2.0 μM; RA190 1 μM; 16 hours
Procedure: Cell lysates were loaded on SDS-PAGE, transferred to PVDF membrane, then immunoblotted with anti-GFP, and anti beta-actin antibodies.
In FIG. 18, a reporter cell line expressing Ub-tagged GFP that is constitutively targeted for proteasomal degradation was treated with RA190 ([…]); and JQRA ([…]) for 16 hours. Cell lysates were loaded on SDS-PAGE, transferred to PVDF membrane, then immunoblotted with anti-GFP, and anti-alpha tubulin antibodies.
FIGS. 19A-19I show the exemplary design and characterization of exemplary Rpn13 degrader WL40. […] WL40 was created by linking the Rpn13 inhibitor RA190 to the IMiD thalidomide as a ligand for the CRBN E3 ligase via a PEG linker. […] FIG. 19C is a schematic cartoon for the novel AlphaScreen assay to measure the binding activity of inhibitor with RPN13 proteins. […] FIG. 19E depicts immunoblot analysis of multiple myeloma 1S (MM.1S) cells, which were treated with WL40 or RA190 at the indicated concentrations and time periods; protein lysates were subjected to the immunoblot analysis using anti-Rpn13 or anti-tubulin Abs. FIG. 19F depicts flow cytometry analysis of MM.1S cells, which were treated with DMSO control, WL40 (400 nM), or RA190 (500 nM) for 16 hours; cells were then washed and stained with Rpn13 Ab conjugated with AlexaFluor-647, followed by the flow cytometry analysis. Isotype Ab conjugated to AlexaFluor-647 was used as control for non-specific binding. Data was quantified using FACS Diva (BD Biosciences, USA) and FlowJo (FlowJo LLC, USA). FIG. 19G depicts immunoblot analysis of MM.1S-CRBN KO cells, which were treated with WL40 (400 nM) or RA190 (500 nM) for 16 hours; protein lysates were subjected to the immunoblot analysis using anti-Rpn13 or anti β-actin Abs. […]
To confirm that CRBN presence is a prerequisite for the function of WL40 in cells, CRBN-knockout (KO) MM.1S cells^27, 38 were utilized, and the effect of WL40 on Rpn13 degradation was examined. […] GFPu-1 cells were treated with WL40, and GFP levels were then analyzed using immunoblotting. […]

[3] = system: multiple myeloma cell lines; test: Viability of a panel of multiple myeloma cell lines; assay type: cell-based, Human; conditions: multiple myeloma cell lines; 48 hours; Wst-1
Source text: FIGS. […] Wst-1 assay was used to test cell viability. FIGS. 6A and 6B show the effect of exemplary bifunctional compounds WL40 and WL44 on multiple myeloma cell lines.

[4] = system: normal PBMCs; test: Viability of normal PBMCs; assay type: cell-based, Human; conditions: at the IC50; 48 hours; Wst-1
Procedure: FIGS. 5A and 5B show PBMCs from normal healthy donor treated with WL40 and WL44 at the indicated concentrations for 48 hours. […]
The IC50 of WL40 for cell lines is shown.

[5] = system: MM.1S CRBN KO cells; test: MM.1S CRBN KO cell viability; assay type: cell-based, Human; conditions: MM.1S-CRBN KO; 24 hours; Wst-1
Source text: FIGS. […] Wst-1 assay was used to test cell viability.
The experiment was repeated twice and JQRA concentration was increased (as indicated) at the second time.

[6] = system: HCT116 and HCT116-Rpn13KO cell lines; test: HCT116 and HCT116-Rpn13KO cell viability; assay type: cell-based; conditions: HCT116 versus HCT116-Rpn13KO; 48 hours; Wst-1
Procedure: FIGS. 8A and 8B show HCT116 and HCT116-Rpn13KO cell lines that were treated with WL40 or WL44 at the indicated concentrations for 48 hours. Wst-1 assay was used to test cell viability.
CRISPR-Cas9 genome editing was performed to generate Rpn13-knockout (Rpn13-KO) HCT116 and MM.1S cell lines. Cells were transfected with Rpn13-CRISPR/Cas9-knockout (KO) plasmid (Santa Cruz Biotechnology, Inc., Santa Cruz, Calif., USA) using Lipofectamine 2000 (Thermo Fisher Scientific, Waltham, Mass., USA) or the cell line Nucleofector Kit V (Amaxa Biosystems, Cologne, Germany), respectively. After 48 h incubation, green fluorescent protein (GFP)-positive cells were sorted. Rpn13 KO was confirmed by both protein expression studies and DNA sequencing.

[7] = system: MM.1S cells; test: MM.1S cell viability (WST); conditions: 24 hours, Wst-1
Procedure: FIGS. 4A and 4B show multiple myeloma 1S (MM.1S) cells treated with RA190, WL40, and WL44 at the indicated concentrations for 24 hours. Wst-1 assay was used to test cell viability.
In FIG. 13B, multiple myeloma cells (MM.1S) were treated with RA190 or compound JQRA at the indicated concentrations for 72 hours, and the percentage of viable cells was measured.
Purified CD138^+ patient MM cells, which were treated with DMSO control or WL40 at indicated concentrations for 48 hours, followed by assessment for cell viability using CellTiter-Glo assay (mean±SD of triplicate cultures; p<0.001). […] Normal PBMCs from healthy donors were treated with DMSO control or WL40 at indicated concentrations for 48 hours, and then analyzed for cell viability using CellTiter-Glo assay (mean±SD of quadruplicate cultures). […] MM.1S cells were cultured with or without patient BMSCs in the presence or absence of WL40 for 48 hours, and cell proliferation was measured by WST assay (mean±SD; n=3; p<0.0001). […] MM.1S cells were cultured with or without patient pDCs in the presence or absence of WL40 for 48 hours, and cell proliferation was measured by WST assay (mean±SD; n=3; p<0.0001).

Sequence of RPN13 (Q16186 whole entry): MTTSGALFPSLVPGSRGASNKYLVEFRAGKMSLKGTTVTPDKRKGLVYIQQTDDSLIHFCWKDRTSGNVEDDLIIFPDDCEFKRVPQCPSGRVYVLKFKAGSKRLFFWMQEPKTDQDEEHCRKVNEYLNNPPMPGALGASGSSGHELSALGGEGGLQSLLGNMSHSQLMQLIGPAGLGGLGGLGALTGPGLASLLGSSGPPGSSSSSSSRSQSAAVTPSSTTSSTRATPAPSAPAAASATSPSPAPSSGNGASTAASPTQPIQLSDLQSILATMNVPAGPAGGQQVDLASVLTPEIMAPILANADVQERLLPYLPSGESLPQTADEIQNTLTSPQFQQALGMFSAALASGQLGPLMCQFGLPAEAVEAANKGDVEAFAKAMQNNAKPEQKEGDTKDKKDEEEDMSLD

CC(C)C[C@@H](C=O)NC(=O)[C@H](CC(C)C)NC(=O)[C@H](CC(C)C)NC(=O)OCc1ccccc1 [MG132, reference compound] (Cbz-Leu-Leu-Leu-aldehyde)
WL40-mediated Rpn13 degradation after proteasome inhibitor pretreatment ([1]; MM.1S, MG132 (10 μM) 1 hour, then WL40 (400 nM) 8 hours): blocked WL40-mediated Rpn13 degradation

O=C1CCC(N2C(=O)c3ccc(NCCOCCOCCOCCC(=O)N[C@H](Cc4ccccc4)C(=O)N4C/C(=C\c5ccc(Cl)c(Cl)c5)C(=O)/C(=C/c5ccc(Cl)c(Cl)c5)C4)cc3C2=O)C(=O)N1 (some centres unmarked) [WL44]
Ub-GFP levels / proteasome function (immunoblot) [2]: block proteasome function | cell viability IC50 [3]: high IC50 in several cell lines | viability of normal PBMCs [4]: do not significantly affect the viability | cell viability [5]: decrease cell viability | RPN13 dependence of cytotoxicity [6]: RPN13-dependent | cell viability IC50 [7]: lower IC50 compared to compound RA190 | Rpn13 levels (immunoblot) ([1]; MM.1S cells, 200 nM, 400 nM, 800 nM, 4, 8, 16 hours): degrade Rpn13

— US11702402B2, “Small molecules that block proteasome-associated ubiquitin receptor RPN13 function and uses thereof” (DANA-FARBER CANCER INSTITUTE, INC., priority 2018, dated 2023)
